From publication PMC8406319, “The dCache Chemoreceptor TlpA of Helicobacter pylori Binds Multiple Attractant and Antagonistic Ligands via Distinct Sites” (mBio, 2021)
Counter-ions that a name gives are not always drawn.

Assays:
H. pylori PMSS1 WT = test: Temporal chemotaxis assay (live-cell video microscopy, direction changes), WT; assay type: cell-based, Helicobacter pylori
Method: H. pylori chemotactic responses toward the seven putative TlpA-dependent ligands were examined by a live-cell video microscopy assay that measures the temporal chemotaxis response to test ligands. […] Acidic conditions are sensed by chemoreceptors other than TlpA ([24], [29], [31]) and potentially mask chemotactic responses to the ligands being tested.
Cultures of H. pylori PMSS1 WT and ΔtlpA strains were grown overnight, back-diluted, and then incubated until an OD600 of 0.12 to 0.15 was reached. Cultures were treated with water (Mock) or various concentrations of compounds, as indicated. […] The cells were immediately filmed, and direction changes were counted over a 3-s swimming period in at least 100 cells per treatment from 3 biological replicates. Data are normalized to the values for the untreated control for each strain, as described in Materials and Methods. Error bars represent the standard errors of the means. *, P < 0.05; **, P < 0.01; ***, P < 0.001 (comparisons to the untreated control per strain using two-way ANOVA with Dunnett’s multiple-comparison test).
Swimming behavior assays were done with H. pylori PMSS1 strains grown in BB10 as described above. Cultures grown overnight were diluted to an optical density at 600 nm (OD600) of 0.1 in fresh BB10 and then incubated with shaking as described above until an OD600 of 0.12 to 0.15 was reached. […] The number of direction changes in a bacterial swimming trajectory was enumerated over a 3-s interval to determine whether each putative ligand is sensed as an attractant or repellent or elicits no response ([20], [25][–][30]). […] Each control is sensed by chemoreceptors other than TlpA ([24], [25], [29], [31]). The pH of BB10 upon treatment was independently assessed using a Denver Instruments pH meter. […] Therefore, to be able to compare the results to those of previous experiments, we continued resuspending acidified ligands in pure water and then adjusting the pH of the resuspended ligand using NaOH. Cultures were filmed immediately after ligand addition at a ×400 magnification using a Hamamatsu C4742-95 digital camera with μManager software (version 1.4.22), mounted on a Nikon Eclipse E600 phase-contrast microscope. For the competition chemotaxis assay, cultures of H. pylori and ligands were prepared as described above. However, 1 min after the addition of a nonchemoactive ligand at a final concentration of 10 mM, a chemoactive ligand was added at a final concentration of 10 mM, and the cultures were then filmed as described above. Videos were relabeled to blind the observer to the strain identity. For each sample, >100 3-s-long bacterial tracks from three independent cultures were analyzed manually to identify stops followed by direction changes. Data for all biological replicates under each condition were combined, and the average number of direction changes in 3 s and the standard error of the mean were calculated. For each strain, data were normalized to the values for the untreated control under each experimental condition. Statistical analysis of the data for treated versus untreated samples was performed using two-way analysis of variance (ANOVA) and Dunnett’s multiple-comparison test.

TlpALBD point mutants = test: SPR binding affinity of TlpALBD point mutants relative to WT; parameters: species or system Helicobacter pylori SS1; conditions: vs WT
Source text: The periplasmic portion of TlpA (TlpALBD), amino acids 28 to 299, from Helicobacter pylori SS1 was cloned into a pBH4 expression vector (pBH4_TlpALBD) to generate an N-terminal 6×His-tagged construct, with a tobacco etch virus (TEV) protease site, under the control of isopropyl-β-D-thiogalactopyranoside (IPTG) ([19]). […] TlpALBD and all point mutants were purified as described previously by Sweeney et al. ([19]).
Purified TlpALBD was immobilized on a CM5 series S sensor chip, and binding affinities were tested using a Biacore S200 instrument (GE Healthcare) as described previously ([39], [57], [59]). Briefly, proteins were captured using an amine-coupling kit (GE Healthcare), in which the carboxylmethyl dextran matrix of the sensor chip was activated by the injection of a mixture of 0.2 M 1-ethyl-3-[(3-dimethylamino)propyl]-carbodiimide (EDC) and 0.05 M N-hydroxysuccinimide (NHS), followed by the neutralization of the remaining unreacted NHS ester groups by the injection of 1 M ethanolamine-HCl (pH 8.0). Purified TlpALBD was diluted in 10 mM sodium acetate buffer (pH 4.5) at a concentration of 100 μg/ml for immobilization to the chip. A total of 8,400 response units (RU) of TlpALBD were captured on flow cell 2. […] The data sets were analyzed using Biacore S200 evaluation software 2.0.2; sensorgrams were double-reference subtracted.

TlpALBD = test: Small-molecule ligand binding array; parameters: species or system Helicobacter pylori SS1; conditions: ligand binding array screen; n = 3; also: key: + for positive binding; +/− for intermediate binding; − for no binding
Method: Small-molecule arrays were prepared and performed as previously described ([57]). Briefly, 1 μg of purified TlpALBD in phosphate-buffered saline (PBS) (pH 7.2) was incubated with a molar concentration ratio (4:2:1) of anti-His antibody (Cell Signaling), followed by incubation with a secondary antibody (Thermo Scientific) for signal amplification. The protein-antibody mix was added to an Arrayit Superepoxy III glass substrate array blocked with PBS (pH 7.2) with 1% bovine serum albumin. […] Unbound protein was washed away with PBS with 0.05% Tween. […] Three biological replicates were performed, with a total of 12 data points for each glycan tested. Binding was classified as positive for a ligand if the relative fluorescence unit value was >1-fold above the mean background (defined as the average background of negative-control spots plus 3 standard deviations [SD]) and was statistically significant (P < 0.005 by Student’s t test). Small-molecule array slide preparation and analysis were done according to MIRAGE guidelines ([58]) (outlined in Table S5).
Classification Guidelines
1. Sample: Glycan Binding Sample
Origin: Helico bact er pyl ori SS1; produce d as a reco mbinant His -tagged protein in E.
The preparation of TlpA is exp lained in the Materials and Methods se ct ion: TlpA co nst ruct desi gn and protein purifica tion.
Sample Sample is a His Tagged protein co ntaining only the periplasm ic rece ptor domain, amino […]
Please see Materials and Methods: Li ga nd bi ndi ng arra y.
Proteins were co mplexe d with mouse anti-his antibody, with se co ndary and tertiary Alexa Fluor555 antibodies (rabbit anti-mouse , goat anti-rabbit) at a molar ratio of 4:2:1.
The protein/antibody co mplex was incu bated on ice for 10 mins prior to placi ng on the Assa y array. Arrays were performed with 1 µg of co mplexe d protein incu bated on the array for protoco l 20 min. Arrays were then wash ed 3 times in Array PBS (PBS + 2 mM MgCl2 + 2 mM CaCl2) then dried by ce ntrifugation for 3 min at 300 x g. Sca nning was performed usi ng an Innopsys InnoSca n 1100AL and analyze d usi ng Mapix (Innopsy s). Yes/ no binding was determined by si x posi tive replica te sp ots in three replica te exp eriments. […]
2.2 Small molecule Library […]
descr iption for Compounds printed in the amino aci d/small molecu le array for this st udy are list ed in […]
5.2 Small molecule array with “Map”
The array co nsi sts of triplica te su b-arrays of amino aci ds and sm all moleucl es (24 rows x 10 co lumns) with 400μm sp ot sp aci ng (ce ntre to ce ntre) with a minimum sp ot si ze of 100μm . Each sa mple is printed si x times, with each of the 3 su b-arrays incl uding at least Array layo ut si x negative co ntrol sa mples (print so lution only) and a posi tive co ntrol sa mples […]
Posi tive co ntrols provi de proof of su cce ssf ul immobiliza tion of the amine reagents and provi des for orientation for analysi s.
Sample Arrays are quality co ntrolled by a range of measu res. 1. Each printed array is post print identifica tion sca nned to co nfirm deposi tion of the sa mples on the array su rface prior to neutraliza tion and quality of the remaining sl ide su rface . 2. Post neutralize d sl ides are sca nned again to monitor co ntrol for remaining autofluoresce nce .
1. 6. Detector and Data Processing
Sca nning reso lution: […]
Sca n powers: Low lase r power. […]
analysi s Innopsys MAPIX.

H. pylori PMSS1 ΔtlpA = test: Temporal chemotaxis assay (direction changes), ΔtlpA mutant; assay type: cell-based, Helicobacter pylori; conditions: ligands 0.1-10 mM, controls 50 μM dipyridyl, 10 mM HCl
Method: Cultures of H. pylori PMSS1 WT and ΔtlpA strains were grown overnight, back-diluted, and then incubated until an OD600 of 0.12 to 0.15 was reached. Cultures were treated with water (Mock) or various concentrations of compounds, as indicated. For panels C and E, the pH of cysteine, thiamine, malic acid, and α-ketoglutarate stocks was adjusted using NaOH to match the pH of the water used for the untreated control. The cells were immediately filmed, and direction changes were counted over a 3-s swimming period in at least 100 cells per treatment from 3 biological replicates. Data are normalized to the values for the untreated control for each strain, as described in Materials and Methods. Error bars represent the standard errors of the means. *, P < 0.05; **, P < 0.01; ***, P < 0.001 (comparisons to the untreated control per strain using two-way ANOVA with Dunnett’s multiple-comparison test).
To determine if chemoattractant responses toward arginine, fumarate, and cysteine were TlpA dependent, the same tracking experiments were repeated with a mutant lacking tlpA (ΔtlpA).
Swimming behavior assays were done with H. pylori PMSS1 strains grown in BB10 as described above. Cultures grown overnight were diluted to an optical density at 600 nm (OD600) of 0.1 in fresh BB10 and then incubated with shaking as described above until an OD600 of 0.12 to 0.15 was reached. […] The number of direction changes in a bacterial swimming trajectory was enumerated over a 3-s interval to determine whether each putative ligand is sensed as an attractant or repellent or elicits no response ([20], [25][–][30]). […] Each control is sensed by chemoreceptors other than TlpA ([24], [25], [29], [31]). The pH of BB10 upon treatment was independently assessed using a Denver Instruments pH meter. Prior to realizing that chemotactic responses may be due to medium acidification, we resuspended all ligands in pure water. Therefore, to be able to compare the results to those of previous experiments, we continued resuspending acidified ligands in pure water and then adjusting the pH of the resuspended ligand using NaOH. Cultures were filmed immediately after ligand addition at a ×400 magnification using a Hamamatsu C4742-95 digital camera with μManager software (version 1.4.22), mounted on a Nikon Eclipse E600 phase-contrast microscope. For the competition chemotaxis assay, cultures of H. pylori and ligands were prepared as described above. However, 1 min after the addition of a nonchemoactive ligand at a final concentration of 10 mM, a chemoactive ligand was added at a final concentration of 10 mM, and the cultures were then filmed as described above. Videos were relabeled to blind the observer to the strain identity. For each sample, >100 3-s-long bacterial tracks from three independent cultures were analyzed manually to identify stops followed by direction changes. Data for all biological replicates under each condition were combined, and the average number of direction changes in 3 s and the standard error of the mean were calculated. For each strain, data were normalized to the values for the untreated control under each experimental condition. Statistical analysis of the data for treated versus untreated samples was performed using two-way analysis of variance (ANOVA) and Dunnett’s multiple-comparison test.

Row | SMILES | Chemotactic response (direction changes vs mock) (H. pylori PMSS1 WT; WT, 0.1, 1, 10 mM tested, acidic ligand stocks pH neutralized with NaOH, 10 mM most significant) | Chemotactic response, ligand stock pH not adjusted (H. pylori PMSS1 WT; acidic in solution, unadjusted pH) | Change in binding affinity, any point mutant (TlpALBD point mutants) | Array result (TlpALBD) | Chemotactic response of ΔtlpA mutant (H. pylori PMSS1 ΔtlpA)
1 | O=C(O)CCC(=O)C(=O)O [α-Ketoglutarate, α-ketoglutaric acid] | no significant direction changes | significant TlpA-independent chemorepellent responses | no appreciable change | + | 
2 | c1ccc(-c2ccccn2)nc1 [dipyridyl, 2,2′-dipyridyl, reference compound] |  |  |  |  | significant attractant
3 | Cl [HCl, reference compound] |  |  |  |  | repellent responses
